Target: T1, human recombinant MGMT (O^6-methylguanine-DNA methyltransferase) (Homo sapiens, UniProt P16455)
T1 construct: recombinant
T1 sequence (P16455 1-207): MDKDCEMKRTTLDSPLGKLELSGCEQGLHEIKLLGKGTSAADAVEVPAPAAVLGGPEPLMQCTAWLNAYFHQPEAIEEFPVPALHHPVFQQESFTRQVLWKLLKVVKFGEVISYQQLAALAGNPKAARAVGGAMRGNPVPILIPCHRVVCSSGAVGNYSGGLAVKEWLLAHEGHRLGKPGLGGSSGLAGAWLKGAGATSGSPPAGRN
Test: [3H]-methylated-DNA MGMT inactivation assay
Format: biochemical

| SMILES | IC50 |
| --- | --- |
| CCCOC(=O)n1cc2c(OCc3cc(Br)cs3)nc(N)nc2n1 [compound 411] | 2.82 nM |
| N#Cc1csc(COc2nc(N)nc3[nH]cnc23)c1 [compound 90] | 3.02 nM |
